Laboratory results published in ChEMBL document CHEMBL4699602, “Stapled and Xenopus Glucagon-Like Peptide 1 (GLP-1)-Based Dual GLP-1/Gastrin Receptor Agonists with Improved Metabolic Benefits in Rodent Models of Obesity and Diabetes” (J Med Chem, 2020).
Active and inactive are the calls of the source. The calls are words filed in the database; no cut-off is given here. Where a SMILES comes first, the peptide text is derived from it.

Columns and labels:
Mus musculus = assay: Hypoglycemic activity in ICR mouse assessed as decrease in blood glucose concentration at 25 nmol/kg, ip dosed 15 mins before test and measured up to 120 mins by OGTT method; assay type: functional, organism-based
[1] = molecular target: Glucagon-like peptide 1 receptor (Homo sapiens, UniProt P43220); assay: Agonist activity at human GLP-1R expressed in HEK293 cells assessed as stimulation of cAMP accumulation incubated for 20 mins; assay type: functional, cell-based
Glucagon-like peptide 1 receptor, sequence (P43220 whole entry): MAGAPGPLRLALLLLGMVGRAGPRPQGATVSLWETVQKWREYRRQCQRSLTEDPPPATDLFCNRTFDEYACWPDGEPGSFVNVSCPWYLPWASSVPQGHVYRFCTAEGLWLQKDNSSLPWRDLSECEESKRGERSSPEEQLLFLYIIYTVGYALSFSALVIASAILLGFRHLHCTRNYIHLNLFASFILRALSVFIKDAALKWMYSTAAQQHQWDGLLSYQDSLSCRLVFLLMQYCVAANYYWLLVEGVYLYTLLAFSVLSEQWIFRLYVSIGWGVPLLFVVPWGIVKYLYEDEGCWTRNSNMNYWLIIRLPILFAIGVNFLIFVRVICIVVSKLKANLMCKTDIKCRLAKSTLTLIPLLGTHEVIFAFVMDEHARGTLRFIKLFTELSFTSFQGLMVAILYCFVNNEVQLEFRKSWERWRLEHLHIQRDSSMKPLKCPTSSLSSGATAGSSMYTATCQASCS

Row | SMILES | Activity (Mus musculus) | EC50 [1] [nM]
1 | CC[C@H](C)[C@H](NC(=O)[C@H](Cc1ccccc1)NC(=O)[C@H](CCC(=O)O)NC(=O)[C@H](CCCCN)NC(=O)[C@H](C)NC(=O)[C@H](C)NC(=O)[C@H](CCC(N)=O)NC(=O)CNC(=O)[C@H](CCC(=O)O)NC(=O)[C@H](CC(C)C)NC(=O)[C@H](Cc1ccc(O)cc1)NC(=O)[C@H](CO)NC(=O)[C@H](CO)NC(=O)[C@@H](NC(=O)[C@H](CC(=O)O)NC(=O)[C@H](CO)NC(=O)[C@@H](NC(=O)[C@H](Cc1ccccc1)NC(=O)[C@@H](NC(=O)CNC(=O)[C@H](CCC(=O)O)NC(=O)[C@H](C)NC(=O)[C@@H](N)Cc1cnc[nH]1)[C@@H](C)O)[C@@H](C)O)C(C)C)C(=O)N[C@@H](C)C(=O)N[C@@H](Cc1c[nH]c2ccccc12)C(=O)N[C@@H](CC(C)C)C(=O)N[C@H](C(=O)N[C@@H](CCCCN)C(=O)NCC(=O)N[C@@H](CCCNC(=N)N)C(=O)O)C(C)C | Active | –
2 | CC[C@H](C)[C@H](NC(=O)[C@H](CC(C)C)NC(=O)[C@H](Cc1c[nH]c2ccccc12)NC(=O)[C@H](CCC(=O)O)NC(=O)[C@@H](NC(=O)[C@H](Cc1ccccc1)NC(=O)[C@H](CS)NC(=O)[C@H](CCCCN)NC(=O)[C@H](C)NC(=O)[C@H](C)NC(=O)[C@H](CCC(=O)O)NC(=O)[C@H](CCC(=O)O)NC(=O)[C@H](CCC(=O)O)NC(=O)[C@H](CS)NC(=O)[C@H](Cc1ccc(O)cc1)NC(=O)[C@H](CCC(=O)O)NC(=O)[C@@H](NC(=O)[C@@H](NC(=O)[C@H](CC(=O)O)NC(=O)[C@H](CC(N)=O)NC(=O)[C@@H](NC(=O)[C@H](Cc1ccc(O)cc1)NC(=O)[C@@H](NC(=O)CNC(=O)[C@H](CCC(=O)O)NC(=O)C(C)(C)NC(=O)[C@@H](N)Cc1c[nH]cn1)[C@@H](C)O)[C@@H](C)O)C(C)C)[C@@H](C)O)[C@@H](C)CC)C(=O)N[C@@H](CCCCN)C(=O)NCC(=O)N[C@@H](CCCCN)C(=O)N1CCC[C@H]1C(=O)N[C@@H](CO)C(=O)N[C@@H](CO)C(=O)NCC(=O)N[C@@H](C)C(=O)N1CCC[C@H]1C(=O)N1CCC[C@H]1C(=O)N1CCC[C@H]1C(=O)N[C@@H](CO)C(N)=O (HELM PEPTIDE1{H.[Aib].E.G.T.Y.T.N.D.V.T.E.Y.C.E.E.E.A.A.K.C.F.I.E.W.L.I.K.G.K.P.S.S.G.A.P.P.P.S.[am]}$$$$V2.0) | Active | 0.042
3 | CC[C@H](C)[C@H](NC(=O)[C@H](CC(C)C)NC(=O)[C@H](Cc1c[nH]c2ccccc12)NC(=O)[C@H](CCC(=O)O)NC(=O)[C@@H](NC(=O)[C@H](Cc1ccccc1)NC(=O)[C@H](CS)NC(=O)[C@H](CCCCN)NC(=O)[C@H](C)NC(=O)[C@H](C)NC(=O)[C@H](CCC(=O)O)NC(=O)[C@H](CCC(=O)O)NC(=O)[C@H](CCC(=O)O)NC(=O)[C@H](CS)NC(=O)[C@H](Cc1ccc(O)cc1)NC(=O)[C@H](CCC(=O)O)NC(=O)[C@@H](NC(=O)[C@@H](NC(=O)[C@H](CC(=O)O)NC(=O)[C@H](CC(N)=O)NC(=O)[C@@H](NC(=O)[C@H](Cc1ccc(O)cc1)NC(=O)[C@@H](NC(=O)CNC(=O)[C@H](CCC(=O)O)NC(=O)C(C)(C)NC(=O)[C@@H](N)Cc1c[nH]cn1)[C@@H](C)O)[C@@H](C)O)C(C)C)[C@@H](C)O)[C@@H](C)CC)C(=O)N[C@@H](CCCCN)C(=O)NCC(=O)N[C@@H](CCCCN)C(N)=O (HELM PEPTIDE1{H.[Aib].E.G.T.Y.T.N.D.V.T.E.Y.C.E.E.E.A.A.K.C.F.I.E.W.L.I.K.G.K.[am]}$$$$V2.0) | Active | 0.066
